Source: patent US6833262B1 (priority 1999, dated 2004)
Where two headings read alike, the source gives them in different places. Peptide text beside a SMILES is read from it.

Tests used:
periodontain [1] = assay: Activation of periodontain by reducing agents and additives; type: biochemical, Porphyromonas gingivalis; conditions: for Periodontain activity achieved with reducing agent: reducing agent at 0.1 mM concentration
Rgp's = conditions: cited from earlier work
Kgp = Kgp (Porphyromonas gingivalis, UniProt B2RLK2); conditions: cited from earlier work
periodontain [2] = type: biochemical, Porphyromonas gingivalis
[3] = test system: human α1-proteinase inhibitor

O[C@H](CS)[C@H](O)CS (racemic) [DTT, dithiothreitol]
Periodontain activity achieved with reducing agent (periodontain [1]): full activity

CC(C)C[C@H](NC(=O)[C@H]1O[C@@H]1C(=O)O)C(=O)NCCCCN=C(N)N (relative stereo) [E-64, L-trans-epoxysuccinyl-leucylamide-(4-guanidino)-butane]
Inhibition of Rgp's (Rgp's): only weakly inhibited | Inhibition of Kgp (Kgp): not inhibited | Inhibition of periodontain (in words) (periodontain [2]): readily inhibited | Percent Inhibition (periodontain [2]; 100 µM): 100%

O=c1oc(Cl)c(Cl)c2ccccc12 [Dichloroisocoumarin, 3,4 dichloroisocoumarin]
Inhibition of periodontain (in words) (periodontain [2]): readily inhibited | Percent Inhibition (periodontain [2]): 2%

NC(=O)CI [Idoacetamide]
Inhibition of periodontain (in words) (periodontain [2]): readily inhibited | Percent Inhibition (periodontain [2]): 100%

CC(=O)N[C@@H](CC(C)C)C(=O)N[C@@H](CC(C)C)C(=O)N[C@H](C=O)CCCNC(=N)N [Leupeptin]
Inhibition of periodontain (in words) (periodontain [2]): readily inhibited | Percent Inhibition (periodontain [2]; 50 µM): 88%

NC(N)=NCCC[C@H](NC(=O)[C@@H]1CCCN1C(=O)[C@H](N)Cc1ccccc1)C(=O)CCl [Phe—Pro—Arg chloromethyl ketone, Phe-Pro-Arg chloromethyl ketone]
Inhibition of periodontain (in words) (periodontain [2]): readily inhibited | Percent Inhibition (periodontain [2]; 10 µM): 96%

NCCCC[C@H](NC(=O)[C@H](Cc1ccccc1)NC(=O)OCc1ccccc1)C(=O)COC(=O)c1ccccc1 [Z-Phe—Lys benzoyloxy methyl ketone, Z-Phe-Lys benzoyloxy methyl ketone]
Inhibition of periodontain (in words) (periodontain [2]): readily inhibited | Percent Inhibition (periodontain [2]; 10 µM): 99%

N[C@@H](CS)C(=O)O [free cysteine, cysteine]
Periodontain activity achieved with reducing agent (periodontain [1]): full activity

NCC(=O)NCC(=O)O [glycyl-glycine] (H-Gly-Gly-OH)
Stimulation of periodontain activity (periodontain [1]; data not shown): did not stimulate activity

OCCS [β-mercaptoethanol]
Periodontain activity achieved with reducing agent (periodontain [1]): full activity

Tosyl-L-lysine chloromethyl ketone
Inhibition of periodontain (in words) (periodontain [2]): readily inhibited | Percent Inhibition (periodontain [2]): 91%

calcium ions
Stabilizing effect on periodontain (periodontain [1]; data not shown): did not have a stabilizing effect

ethylenediaminetetra-acetate [EDTA]
Percent Inhibition (periodontain [2]): 0%

periodontain (mature native heterodimer purified from P. gingivalis HG66 culture fluid)
hydrolysis of a synthetic pNA substrate (Phe-Leu-Glu-pNA): no hydrolysis was detected | Specific Activity (α1-PI inactivation assay, final TSK gel filtration step) [3]: 368 units/mg
